Data from ChEMBL document CHEMBL1201862, “PubChem BioAssay data set” (2004).
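Briefly, cells in 96-well plates were exposed to five compound concentrations for 48 h, and endpoints were estimated by linear interpolation. Abbreviation: GI50, concentration required for 50% inhibition of growth.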 The source made the active and inactive calls. Cut-off read from the data, not from the text of the source: active = GI50 up to about 1.1 µM and inactive = higher.

How the values were obtained:
Assay in all cases: inhibition of tumour cell growth, NCI panel, 48 h
[1] = system: K562
[2] = system: SW-620
[3] = system: SK-OV-3
[4] = system: HCT-15
[5] = system: SK-MEL-28
[6] = system: MOLT-4
[7] = system: SNB-19
[8] = system: Malme-3M
[9] = system: A549
[10] = system: HOP-62
[11] = system: COLO 205
[12] = system: UACC-257
[13] = system: NCI-H226
[14] = system: SF-268
[15] = system: HCT-116
[16] = system: SF-539
[17] = system: SN12C
[18] = system: U-251
[19] = system: IGROV-1
[20] = system: CAKI-1

| SMILES | GI50 [1] | GI50 [2] | GI50 [3] | GI50 [4] | GI50 [5] | GI50 [6] | GI50 [7] | GI50 [8] | GI50 [9] | GI50 [10] | GI50 [11] | GI50 [12] | GI50 [13] | GI50 [14] | GI50 [15] | GI50 [16] | GI50 [17] | GI50 [18] | GI50 [19] | GI50 [20] |
| --- | --- | --- | --- | --- | --- | --- | --- | --- | --- | --- | --- | --- | --- | --- | --- | --- | --- | --- | --- | --- |
| COc1cc2cc(OC(C)=O)c3cc4c(cc3c2c(OC)c1OC)OCO4 | > 100 µM (inactive) | > 100 µM (inactive) | > 100 µM (inactive) | > 100 µM | > 100 µM (inactive) | > 100 µM (inactive) | > 100 µM (inactive) | > 100 µM (inactive) | > 100 µM (inactive) | > 100 µM (inactive) | > 100 µM (inactive) | > 100 µM (inactive) | > 100 µM (inactive) | > 100 µM (inactive) | > 100 µM (inactive) | > 100 µM (inactive) | > 100 µM (inactive) | > 100 µM (inactive) | > 100 µM (inactive) | – |
| CCOC(=O)NC(Nc1ncccn1)(C(F)(F)F)C(F)(F)F | > 100 µM (inactive) | – | > 100 µM (inactive) | > 100 µM | > 100 µM (inactive) | > 100 µM (inactive) | > 100 µM (inactive) | > 100 µM (inactive) | – | > 100 µM (inactive) | – | > 100 µM (inactive) | > 100 µM (inactive) | > 100 µM (inactive) | > 100 µM (inactive) | > 100 µM (inactive) | > 100 µM (inactive) | > 100 µM (inactive) | – | – |
| O=C(CCn1[nH]c(=O)c(Cl)c(Cl)c1=O)NOCCCc1ccccc1 | > 100 µM (inactive) | > 100 µM (inactive) | – | > 100 µM | > 100 µM (inactive) | > 100 µM (inactive) | > 100 µM (inactive) | > 100 µM (inactive) | > 100 µM (inactive) | > 100 µM (inactive) | – | > 100 µM (inactive) | > 100 µM (inactive) | > 100 µM (inactive) | > 100 µM (inactive) | > 100 µM (inactive) | > 100 µM (inactive) | – | > 100 µM (inactive) | > 100 µM (inactive) |
| CC1=C2C(O)C(C(C)C(=O)N(C)C)CCC2(C)C=CC1=O (configuration not stated) | > 100 µM (inactive) | > 100 µM (inactive) | > 100 µM (inactive) | > 100 µM | > 100 µM (inactive) | > 100 µM (inactive) | > 100 µM (inactive) | – | > 100 µM (inactive) | > 100 µM (inactive) | > 100 µM (inactive) | > 100 µM (inactive) | > 100 µM (inactive) | > 100 µM (inactive) | > 100 µM (inactive) | > 100 µM (inactive) | > 100 µM (inactive) | > 100 µM (inactive) | > 100 µM (inactive) | > 100 µM (inactive) |
| CSC1=C(C#N)C(=S)N=C(N)C1C(=O)Nc1ccc(C)cc1 (configuration not stated) | > 100 µM (inactive) | > 100 µM (inactive) | > 100 µM (inactive) | > 100 µM | > 100 µM (inactive) | > 100 µM (inactive) | > 100 µM (inactive) | > 100 µM (inactive) | > 100 µM (inactive) | – | > 100 µM (inactive) | > 100 µM (inactive) | 60.1 µM (inactive) | > 100 µM (inactive) | 81.5 µM (inactive) | > 100 µM (inactive) | > 100 µM (inactive) | > 100 µM (inactive) | > 100 µM (inactive) | > 100 µM (inactive) |
| N#CC(C#N)=Cc1ccc(C=C2SC3=C(SCCS3)S2)s1 | – | 4.38 µM (inactive) | 74.8 µM (inactive) | 0.818 µM | > 100 µM (inactive) | 2.59 µM (inactive) | 44.1 µM (inactive) | > 100 µM (inactive) | 55.5 µM (inactive) | 80.9 µM (inactive) | 8.73 µM (inactive) | 9.38 µM (inactive) | 2.27 µM (inactive) | 40.4 µM (inactive) | 3.24 µM (inactive) | 0.63 µM (active) | 66.2 µM (inactive) | 12.4 µM (inactive) | 4.52 µM (inactive) | 3.47 µM (inactive) |
| CCCCCCCCCCCCCCCC(=O)OCCOCCOCCOCc1ccccc1 | – | > 100 µM (inactive) | – | – | > 100 µM (inactive) | – | 63.8 µM (inactive) | > 100 µM (inactive) | > 100 µM (inactive) | > 100 µM (inactive) | > 100 µM (inactive) | > 100 µM (inactive) | > 100 µM (inactive) | 91 µM (inactive) | > 100 µM (inactive) | > 100 µM (inactive) | > 100 µM (inactive) | 41.6 µM (inactive) | > 100 µM (inactive) | 80.7 µM (inactive) |
| N=C(N)SCc1cn2ccccc2n1 | > 100 µM (inactive) | > 100 µM (inactive) | – | > 100 µM | > 100 µM (inactive) | > 100 µM (inactive) | > 100 µM (inactive) | > 100 µM (inactive) | > 100 µM (inactive) | > 100 µM (inactive) | > 100 µM (inactive) | > 100 µM (inactive) | > 100 µM (inactive) | > 100 µM (inactive) | > 100 µM (inactive) | > 100 µM (inactive) | > 100 µM (inactive) | > 100 µM (inactive) | – | > 100 µM (inactive) |
